From ChEMBL document CHEMBL3046506 (2006)

Tests used:
Pyricularia oryzae [1] = assay: Antifungal activity against wild type Magnaporthe oryzae Hoku-1 in rice seedlings assessed as preventive value of rice blast at 5 ug/ml systemic application at 22 to 30 degC by pot test; format: functional
Pyricularia oryzae [2] = assay: Antifungal activity against wild type Magnaporthe oryzae Hoku-1 in rice seedlings assessed as preventive value of rice blast at 5 ug/ml foliar spray at 26 degC by pot test; format: functional

Compound	Activity (Pyricularia oryzae [1])	Activity (Pyricularia oryzae [2])
CCC1(C(=O)NCCc2cnc(Cl)s2)C(C)C1(Cl)Cl (stereo not given)	40%	40%
CC1C(Cl)(Cl)C1(C)C(=O)NCCc1csc(Cl)c1 (stereo not given)	40%	40%
CC1(C)C(C(=O)NCCc2csc(Cl)c2)C1(Cl)Cl (stereo not given)	<40%	<40%
CC1(C)C(Cl)(Cl)C1(C)C(=O)NCCc1csc(Cl)c1 (stereo not given)	40%	40%
CC(C)C1(C(=O)NCCc2csc(Cl)c2)CC1(Cl)Cl (stereo not given)	40%	40%
CCCC1(C(=O)NCCc2csc(Cl)c2)CC1(Cl)Cl (stereo not given)	<40%	<40%
CC(C)(C)C(C#N)C(=O)NCCc1csc(Cl)c1 (stereo not given)	65%	40%
CC(C)(C)C(Cl)C(=O)NCCc1csc(Cl)c1 (stereo not given)	40%	40%
CC(C)(C)C(Br)C(=O)NCCc1csc(Cl)c1 (stereo not given)	40%	40%
CCC1(C(=O)NCCc2ccc(F)cc2F)C(C)C1(Cl)Cl (stereo not given)	40%	40%
CCC1(C(=O)NCCc2ccc(C(F)(F)F)cc2)C(C)C1(Cl)Cl (stereo not given)	40%	40%
CCC1(C(=O)NCCc2ccccc2Cl)C(C)C1(Cl)Cl (stereo not given)	40%	40%
CCC1(C(=O)NCCc2cccc(Cl)c2)C(C)C1(Cl)Cl (stereo not given)	40%	40%
CCC1(C(=O)NCCc2ccc(Cl)cc2Cl)C(C)C1(Cl)Cl (stereo not given)	40%	40%
CCC1(C(=O)NCCc2ccc(Cl)c(Cl)c2)C(C)C1(Cl)Cl (stereo not given)	40%	40%
CCC1(C(=O)NCCc2ccc(Br)cc2)C(C)C1(Cl)Cl (stereo not given)	<40%	<=40%
CCC1(C(=O)NCCc2ccc(C)cc2)C(C)C1(Cl)Cl (stereo not given)	<40%	<40%
CCC1(C(=O)NCCc2ccsc2)C(C)C1(Cl)Cl (stereo not given)	<=40%	40%
CCC1(C(=O)NCCc2csc(Cl)c2)C(C)C1(Cl)Cl (stereo not given)	65%	65%
CCC1(C(=O)NCCc2cc(Cl)cs2)C(C)C1(Cl)Cl (stereo not given)	40%	40%
CCC1(C(=O)NCCc2ccc(Cl)s2)C(C)C1(Cl)Cl (stereo not given)	40%	40%
CCC1(C(=O)NCCc2csc(Br)c2)C(C)C1(Cl)Cl (stereo not given)	<40%	40%
CCC1(C(=O)NCCc2cc(Cl)sc2Cl)C(C)C1(Cl)Cl (stereo not given)	<40%	40%

Compound	Activity (Pyricularia oryzae [1])	Activity (Pyricularia oryzae [2])
CCC1(C(=O)NCCc2cc(Cl)c(Cl)s2)C(C)C1(Cl)Cl (stereo not given)	40%	<=40%
CCC1(C(=O)NC(C)c2cc(Cl)cs2)C(C)C1(Cl)Cl (stereo not given)	<=40%	<=40%
CCC1(C(=O)NC(C)c2ccc(Cl)s2)C(C)C1(Cl)Cl (stereo not given)	<=40%	<=40%
CCC1(C(=O)NC(C)c2csc(Cl)c2)C(C)C1(Cl)Cl (stereo not given)	40%	<=40%
CCC1(C(=O)NC(C)c2cc(Cl)c(Cl)s2)C(C)C1(Cl)Cl (stereo not given)	<=40%	40%
CCC1(C(=O)NCCc2csc(Cl)n2)C(C)C1(Cl)Cl (stereo not given)	40%	40%
CCC1(C(=O)NC(C)C)C(C)C1(Cl)Cl (stereo not given)	<40%	<40%
CCC(C)NC(=O)C1(CC)C(C)C1(Cl)Cl (stereo not given)	<40%	<40%
CCC1(C(=O)NCCC(F)(F)F)C(C)C1(Cl)Cl (stereo not given)	<40%	<40%
CCC1(C(=O)NC(C)C2CCC2)C(C)C1(Cl)Cl (stereo not given)	<40%	<40%
CCC1(C(=O)NC(C)C2CCCC2)C(C)C1(Cl)Cl (stereo not given)	40%	<40%
CCC1(C(=O)NC(C)C2CCCCC2)C(C)C1(Cl)Cl (stereo not given)	<40%	<40%
CCC1(C(=O)NC(C)C2CCCCCC2)C(C)C1(Cl)Cl (stereo not given)	<40%	<40%
CCC1(C(=O)Nc2ccc(Cl)cc2)C(C)C1(Cl)Cl (stereo not given)	<40%	<40%
CCC1(C(=O)NCc2ccc(Cl)cc2)C(C)C1(Cl)Cl (stereo not given)	40%	<=40%
CCC1(C(=O)NCCc2ccc(Cl)cc2)C(C)C1(Cl)Cl (stereo not given)	40%	40%
CCC1(C(=O)NCCCc2ccc(Cl)cc2)C(C)C1(Cl)Cl (stereo not given)	40%	40%
CCC(NC(=O)C1(CC)C(C)C1(Cl)Cl)c1ccc(Cl)cc1 (stereo not given)	<40%	<=40%
CCC1(C(=O)NCC(C)c2ccc(Cl)cc2)C(C)C1(Cl)Cl (stereo not given)	40%	40%
CCC1(C(=O)NC(C)Cc2ccc(Cl)cc2)C(C)C1(Cl)Cl (stereo not given)	<40%	<40%
CCC1(C(=O)NCCc2ccc(F)cc2)C(C)C1(Cl)Cl (stereo not given)	40%	40%
CC[C@@]1(C(=O)N[C@H](C)c2ccc(Cl)cc2)[C@@H](C)C1(Cl)Cl (mixture of isomers) [CARPROPAMIDE]	>90%	>90%
